Biological target: Human Factor D (Homo sapiens (Human), UniProt P00746)
Assay: Human Factor D Assay
Assay type: biochemical
Settings: Human Factor D 80 nM, substrate Z-L-Lys-SBzl, DTNB, A405; read-out: IC50 (Stars)
Protocol: Example 2. Human Factor D Assay
Human Factor D (purified from human serum, Complement Technology, Inc.) at 80 nM final concentration is incubated with test compound at various concentrations for 5 min at room temperature in 50 mM Tris, 1M NaCl, pH 7.5. A synthetic substrate Z-L-Lys-SBzl and DTNB (Ellman's reagent) are added to final concentrations of 100 µM each. Absorbance at 405 nm (A405) is recorded at 30 second intervals for 30 minutes using a microplate spectrophotometer. IC50 values are calculated by nonlinear regression of Complement Factor D reaction rates as a function of test compound concentration.

Chain of Human Factor D (P00746 26-253): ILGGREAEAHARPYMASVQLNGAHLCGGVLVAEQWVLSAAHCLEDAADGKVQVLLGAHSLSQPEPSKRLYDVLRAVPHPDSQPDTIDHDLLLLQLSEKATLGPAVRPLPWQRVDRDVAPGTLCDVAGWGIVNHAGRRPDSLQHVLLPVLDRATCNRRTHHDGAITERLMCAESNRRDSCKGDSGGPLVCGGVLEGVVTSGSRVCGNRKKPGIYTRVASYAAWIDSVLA

With COc1cc(NC(=O)[C@@H]2C[C@]34CNC(=O)CCCC=CCc5cc(-c6cnc(C)nc6)cc6c(C(C)=O)nn(c56)CC(=O)N2[C@@H]3C4)nc(Br)c1F [Compound T-229] the IC50 was under 1000 nM.
Work on COCc1ccc(Br)nc1NC(=O)[C@@H]1C[C@]23CNC(=O)CCCCCCc4cc(-c5cnc(C)nc5)cc5c(C(C)=O)nn(c45)CC(=O)N1[C@@H]2C3 [Compound T-241] yielded an IC50 of under 1000 nM.
CC(=O)c1nn(CC(=O)N2[C@H]3C[C@@]4(CNC(=O)C(C)(C)CC=CCOCc5ccc(Br)nc5NC3=O)C[C@@H]24)c2ccc(-c3cnc(C)nc3)cc12 [Compound T-115] gave an IC50 of under 1000 nM.
With CC(=O)c1nn(CC(=O)N2[C@H]3C[C@]4(C[C@@H]24)Cn2ccc(n2)C=CCCC(F)(F)c2ccc(Br)nc2NC3=O)c2ccc(-c3cnc(C)nc3)cc12 [Compound T-104] the IC50 was under 1000 nM.
CC(=O)c1nn(CC(=O)N2[C@H]3C[C@@]4(COCCCCOCc5ccc(Br)nc5NC3=O)C[C@@H]24)c2c(CF)cc(-c3cnc(C)nc3)cc12 [Compound T-78] was tested, and the IC50 was under 1000 nM.
For CC(=O)c1nn(CC(=O)N2[C@H]3C[C@]4(C[C@@H]24)CN(C)CCCCC=CCc2ccc(Br)nc2NC3=O)c2c(CF)cc(-c3cnc(C)nc3)cc12 [Compound T-62], the IC50 was under 1000 nM.
For CC(=O)c1nn(CC(=O)N2C[C@@]3(F)COCCCCCCCCc4ccc(Br)nc4NC(=O)[C@@H]2C3)c2ccc(-c3cnc(C)nc3)cc12 [Compound T-194], the IC50 was under 1000 nM.
Compound CC(=O)c1nn(CC(=O)N2[C@H]3C[C@]4(C[C@@H]24)CN(C)CCCCCCCc2ccc(Br)nc2NC3=O)c2ccc(-c3cnc(C)nc3)cc12 [Compound T-110] has an IC50 of under 1000 nM.
CC(=O)c1nn(CC(=O)N2[C@H]3C[C@]4(C[C@@H]24)Cn2ccc(n2)/C=C\COCc2ccc(Br)nc2NC3=O)c2ccc(-c3cnc(C)nc3)cc12 [Compound T-69] gave an IC50 of under 1000 nM.
In the case of CC(=O)c1nn2c3c(cc(-c4cnc(C)nc4)cc13)CCCCCCC(=O)NC[C@@]13C[C@@H](C(=O)Nc4nc(C(F)(F)F)ccc4C)N(C(=O)C2)[C@@H]1C3 [Compound T-220], the IC50 is reported as under 1000 nM.
Work on CC(=O)c1nn2c3c(cc(-c4cnc(C)nc4)cc13)CCCCCCCN(C)C[C@@]13C[C@@H](C(=O)Nc4nc(Br)ccc4C)N(C(=O)C2)[C@@H]1C3 [Compound T-122] yielded an IC50 of 1000 to 10000 nM.
Work on CC(=O)c1nn(CC(=O)N2[C@H]3C[C@]4(C[C@@H]24)CN(C)CCCCCCCc2ccc(Br)nc2NC3=O)c2cnc(-c3cnc(C)nc3)cc12 [Compound T-75] yielded an IC50 of under 1000 nM.
For COCc1ccc(Br)nc1NC(=O)[C@@H]1C[C@]23CNC(=O)CCCC=CCc4cc(-c5cnc(C)nc5)cc5c(C(C)=O)nn(c45)CC(=O)N1[C@@H]2C3 [Compound T-240], the IC50 was under 1000 nM.
Work on Cc1ncc(-c2cc3c4c(c2)c(C#N)nn4CC(=O)N2[C@H](C(=O)Nc4nc(C(F)(F)F)ccc4C)C[C@@]4(CNC(=O)CCCC=CC3)C[C@@H]24)cn1 [Compound T-133] yielded an IC50 of under 1000 nM.
CC(=O)c1nn(CC(=O)N2[C@H]3C[C@@]4(CCCCCCCCc5ccc(Br)nc5NC3=O)C[C@@H]24)c2cnc(-c3cnc(C)nc3)cc12 [Compound T-46] gave an IC50 of under 1000 nM.
CC(=O)c1nn2c3cc(c(-c4cnc(C)nc4)cc13)OCCC/C=C/COC[C@@]13C[C@@H](C(=O)Nc4nc(Br)ccc4C)N(C(=O)C2)[C@@H]1C3 [Compound T-79] was tested, and the IC50 was under 1000 nM.
In the case of CC(=O)N[C@H]1CC=CCOCc2ccc(Br)nc2NC(=O)[C@@H]2C[C@@]3(CNC1=O)C[C@H]3N2C(=O)Cn1nc(C(C)=O)c2cc(-c3cnc(C)nc3)ccc21 [Compound T-22, N-((41R,43S,45R,8S)-42-(2-(3-acetyl-5-(2-methylpyrimidin-5-yl)-1H-indazol-1-yl)acetyl)-16-bromo-3,7-dioxo-13-oxa-42,2,6-triaza-1(2,3)-pyridina-4(3,5)-bicyclo[3.1.0]hexanacyclotetradecaphan-10-en-8-yl)acetamide], the IC50 is reported as under 1000 nM.
For CC(=O)c1nn2c3c(cc(-c4cnc(C)nc4)cc13)CCCCCc1cccc(n1)OC[C@@]13C[C@@H](C(=O)Nc4nc(Br)ccc4C)N(C(=O)C2)[C@@H]1C3 [Compound T-141], the IC50 was under 1000 nM.
In the case of CC(=O)c1nn2c3c(cc(-c4cnc(C)nc4)cc13)CCCCCC(=O)NC[C@]1(F)C[C@@H](C(=O)Nc3nc(C(F)(F)F)ccc3C)N(C1)C(=O)C2 [Compound T-129], the IC50 is reported as 1000 to 10000 nM.
With CC(=O)c1nn(CC(=O)N2[C@H]3C[C@@]4(CNC(=O)C(F)(F)CCCCOCc5ccc(Br)nc5NC3=O)C[C@@H]24)c2cnc(-c3cnc(C)nc3)cc12 [Compound T-119] the IC50 was under 1000 nM.
Work on CC(=O)c1nn(CC(=O)N2[C@H]3C[C@@]4(CNC(=O)C(C)(C)CCCCCc5ccc(Br)nc5NC3=O)C[C@@H]24)c2ccc(-c3cnc(C)nc3)cc12 [Compound T-182] yielded an IC50 of under 1000 nM.
For CC(=O)c1nn(CC(=O)N2[C@H]3C[C@@]4(CNC(=O)C(C)(C)CCCOCc5ccc(C(F)(F)F)nc5NC3=O)C[C@@H]24)c2ccc(-c3cnc(C)nc3)cc12 [Compound T-236], the IC50 was under 1000 nM.
With CC(=O)c1nn2c3cc(c(-c4cnc(C)nc4)cc13)OCCCCCCCCC[C@@]13C[C@@H](C(=O)Nc4nc(Br)ccc4C)N(C(=O)C2)[C@@H]1C3 [Compound T-100] the IC50 was under 1000 nM.
Work on CC(=O)c1nn(CC(=O)N2[C@H]3C[C@]4(C[C@@H]24)Cn2cc(nn2)COCc2ccc(Br)nc2NC3=O)c2ccc(-c3cnc(C)nc3)cc12 [Compound T-18, (31R,33S,35R,Z)-32-(2-(3-acetyl-5-(2-methylpyrimidin-5-yl)-1H-indazol-1-yl)acetyl)-66-bromo-11H-8-oxa-32,5-diaza-6(2,3)-pyridina-1(1,4)-triazola-3(5,3)-bicyclo[3.1.0]hexanacyclononaphan-4-one] yielded an IC50 of under 1000 nM.
CC(=O)c1nn(CC(=O)N2[C@H]3C[C@]4(C[C@@H]24)CN(C)CCCC=CCc2ccc(Br)nc2NC3=O)c2ccc(-c3cnc(C)nc3)cc12 [Compound T-65] gave an IC50 of under 1000 nM.
CC(=O)c1nn(CC(=O)N2[C@H]3C[C@@]4(C=CCCCCCCc5ccc(Br)nc5NC3=O)C[C@@H]24)c2cnc(-c3cnc(C)nc3)cc12 [Compound T-43] gave an IC50 of under 1000 nM.
CC(=O)c1nn2c3c(cc(-c4cnc(C)nc4)cc13)CC=CCCCC(=O)N(C)C[C@@]13C[C@@H](C(=O)Nc4ccn(CC(F)(F)F)n4)N(C(=O)C2)[C@@H]1C3 [Compound T-204] showed an IC50 of under 1000 nM.
CC(=O)c1nn2c3c(cc(-c4cnc(C)nc4)cc13)COCC=CC(F)(F)C(=O)NC[C@@]13C[C@@H](C(=O)Nc4nc(C(F)(F)F)ccc4C)N(C(=O)C2)[C@@H]1C3 [Compound T-138] gave an IC50 of under 1000 nM.
In the case of CC(=O)c1nn(CC(=O)N2C[C@@]3(F)COCCCCCCCc4ccc(Br)nc4NC(=O)[C@@H]2C3)c2ccc(-c3cnc(C)nc3)cc12 [Compound T-106], the IC50 is reported as under 1000 nM.
CC(=O)c1nn2c3c(cc(-c4cnc(C)nc4)cc13)CC=CCCCC(=O)NC[C@@]13C[C@@H](C(=O)NCc4cccc(Cl)c4)N(C(=O)C2)[C@@H]1C3 [Compound T-94] showed an IC50 of under 1000 nM.
In the case of CC(=O)c1nn2c3c(cc(-c4cnc(C)nc4)cc13)CCCCCCCCCC[C@@]13C[C@@H](C(=O)Nc4nc(Br)ccc4C)N(C(=O)C2)[C@@H]1C3 [Compound T-109], the IC50 is reported as under 1000 nM.
In the case of CC(=O)c1nn(CC(=O)N2[C@H]3C[C@]4(C[C@@H]24)CN(C)CCCCC=CCc2ccc(Br)nc2NC3=O)c2ccc(-c3cnc(C)nc3)cc12 [Compound T-64], the IC50 is reported as under 1000 nM.
In the case of CC(=O)c1nn2c3c(cc(-c4cnc(C)nc4)cc13)CCCCCCCCC[C@@]13C[C@@H](C(=O)Nc4nc(Br)ccc4C)N(C(=O)C2)[C@@H]1C3 [Compound T-111], the IC50 is reported as under 1000 nM.
CC(=O)c1nn(CC(=O)N2[C@H]3C[C@@]4(CNC(=O)C(C)(C)C=CCOCc5ccc(C(F)(F)F)nc5NC3=O)C[C@@H]24)c2cnc(-c3cnc(C)nc3)cc12 [Compound T-224] gave an IC50 of under 1000 nM.
In the case of CC(=O)c1nn2c3c(cc(-c4cnc(C)nc4)cc13)CCCCCCC(=O)NC[C@@]13C[C@@H](C(=O)NC/C(F)=C(/C)c4ccccc4)N(C(=O)C2)[C@@H]1C3 [Compound T-197], the IC50 is reported as under 1000 nM.
CC(=O)c1nn(CC(=O)N2[C@H]3C[C@@]4(COCC=CCOCc5ccc(Br)nc5NC3=O)C[C@@H]24)c2c(CF)cc(-c3cnc(C)nc3)cc12 [Compound T-77] gave an IC50 of under 1000 nM.
For CC(=O)c1nn(CC(=O)N2C[C@@]3(F)CNC(=O)C(C)(C)CC=CCOCc4ccc(Br)nc4NC(=O)[C@@H]2C3)c2ccc(-c3cnc(C)nc3)cc12 [Compound T-172], the IC50 was under 1000 nM.
CC(=O)c1nn2c3cc(c(-c4cnc(C)nc4)cc13)OCCC/C=C\COC[C@@]13C[C@@H](C(=O)Nc4nc(Br)ccc4C)N(C(=O)C2)[C@@H]1C3 [Compound T-80] was tested, and the IC50 was under 1000 nM.
CC(=O)c1nn(CC(=O)N2[C@H]3C[C@]4(C[C@@H]24)CN2CCN(CCCOCc4ccc(Br)nc4NC3=O)CC2)c2ccc(-c3cnc(C)nc3)cc12 [Compound T-123] gave an IC50 of 1000 to 10000 nM.
CC(=O)c1nn(CC(=O)N2[C@H]3C[C@@]4(COCCCCCc5ccc(Br)nc5NC3=O)C[C@@H]24)c2ccc(-c3cnc(C)nc3)cc12 [Compound T-38] gave an IC50 of under 1000 nM.
CC(=O)c1nn2c3c(cc(-c4cnc(C)nc4)cc13)CCCCCCCCc1cn(nn1)C[C@@]13C[C@@H](C(=O)Nc4nc(Br)ccc4C)N(C(=O)C2)[C@@H]1C3 [Compound T-53] gave an IC50 of under 1000 nM.
CC(=O)c1nn2c3c(cc(-c4cnc(C)nc4)cc13)CCCCCCC(=O)NC[C@@]13C[C@@H](C(=O)NCCOC(F)(F)F)N(C(=O)C2)[C@@H]1C3 [Compound T-208] was tested, and the IC50 was under 1000 nM.
For CC(=O)c1nn2c3c(cc(-c4cnc(C)nc4)cc13)CCCCCCC=Cc1cn(nn1)C[C@@]13C[C@@H](C(=O)Nc4nc(Br)ccc4C)N(C(=O)C2)[C@@H]1C3 [Compound T-49], the IC50 was under 1000 nM.
For CC(=O)c1nn(CC(=O)N2[C@H]3C[C@@]4(CCCCCCCN(C)Cc5ccc(Br)nc5NC3=O)C[C@@H]24)c2c(CF)cc(-c3cnc(C)nc3)cc12 [Compound T-97], the IC50 was under 1000 nM.
In the case of CC(=O)c1nn2c3c(cc(-c4cnc(C)nc4)cc13)CCCCCCCc1cccc(n1)OC[C@@]13C[C@@H](C(=O)Nc4nc(Br)ccc4C)N(C(=O)C2)[C@@H]1C3 [Compound T-139], the IC50 is reported as under 1000 nM.
